Consider 88 compounds from a melting point compilation (Tetko et al.; mined from patent text by program, amines drawn as free bases though some values may be those of a salt).

A value given as a limit tells only on which side of the number the result lay.

As a reminder, the melting point is the temperature, or range, at which the solid turns liquid. For `O=c1[nH][nH]c(=O)n1-c1c(F)c(F)c(F)c(F)c1F`, the melting point was 180 to 182 °C.

For the compound `CCOC(=O)c1nc2c(=O)[nH]c3cc(F)ccc3n2c1C`, the melting point is over 250 °C.

Turning to `COc1cc2oc(=O)cc(CN3CCC(OC)CC3)c2cc1OC`, the melting point lay within 148 to 150 °C.

The compound `Cc1cnc2c(C#N)c(C)nn2c1-c1cccnc1` displayed a melting point of 207 to 209 °C.

As to `CN=CN(C)c1nc(-c2cc(Cl)nc(Cl)c2)cs1`, the melting point is 145 °C.

`COC(=O)N=C(NC(=O)OC)Nc1ccc(S(=O)CC(C)C)cc1NC(=O)CS(C)=O` (stereo not drawn) displayed a melting point of 149 to 150 °C.

For the compound `CN1C(=O)CC(C(=O)Nc2nccs2)C(=O)c2ccc(Cl)cc21` (stereo not drawn), the melting point lay within 238 to 240 °C.

On to `COc1ccc(CC2NCCCC2C(C)O)cc1` (stereo not drawn), for which the melting point was over 300 °C.

Take `CCOC(=O)c1cc2cc(Cl)c(Cl)cc2[nH]1`: the melting point is 215 to 218 °C.

Turning to `CC(C)Cc1ccc2c(c1O)C(=O)c1c(ccc(CC(C)C)c1O)C2=O`, the melting point fell in the range of 138 to 140 °C.

`COc1ccc(C(=O)Nc2cc(NC(=O)c3cccc(N(C)C)c3)ccc2Cl)cc1OC` returned a melting point of 98 to 99 °C.

Take `NNc1c(Cl)c(Cl)nc(C(=O)O)c1Cl`: the melting point was in the range of 166 to 168 °C.

On to `CCCCC(Cc1ccc(OCCNC(=O)c2ccc(-c3cccc(O)c3)cc2)cc1)C(=O)O` (stereo not drawn), for which the melting point was in the range of 98 to 100 °C.

For `CCC1(C)OC(c2ccc(S(C)(=O)=O)cc2)=C(c2cc(F)cc(F)c2)C1=O` (stereo not drawn), the melting point is 122 to 124 °C.

In turn, `CCCn1c(COCC)nc2c(N)nc3ccc(OCCN)cc3c21` showed a melting point of 157 to 159 °C.

The compound `C=CCN1CCC2(CC1)CSC1=C(O2)c2ccccc2C(=O)C1=O` returned a melting point of 166 to 168 °C.

For `CCOc1nc2cccc(C(=O)O)c2n1Cc1ccc(-c2ccccc2C(=O)O)cc1`, the melting point lay within 213 to 215 °C.

For the compound `CN1CCN(CC(=O)N2c3ccccc3C(=O)Nc3cccnc32)CC1`, the melting point fell in the range of 198 to 200 °C.

`Cc1nc(-n2cnn(CCNc3ccc(F)cc3)c2=O)sc1C(=O)NCc1cccnc1` displayed a melting point of 163 to 164 °C.

In turn, `Cc1c(-c2ccc(C#N)cc2)c(C#N)c(C2CC2)n1Cc1cnc(Cl)c(CO)c1` returned a melting point of 193 to 194 °C.

As to `CCN1C(=O)C2CCc3c(Br)ccc(OC)c3C2C1=O` (stereo not drawn), the melting point is 170 to 174 °C.

Compound `COc1ccc(-c2csc(Nc3ccccc3C(F)(F)F)n2)cc1OC` returned a melting point of 188 °C.

For `COc1cc(C(=O)C2C(=O)N(C)C(=O)N(C)C2=O)ccc1Oc1nc2ccccc2s1`, the melting point was 210 to 211 °C.

In turn, `CCCCC(C(=O)O)c1cccc(C(=O)c2cc3cc(C(=O)O)sc3s2)c1` (stereo not drawn) gave a melting point of 208 °C.

For `COC(=O)C(=CNc1ccc(F)cc1)C(=O)C=Cc1ccc(NC(C)=O)cc1`, the melting point is 161 to 164 °C.

`COc1ccc(C=O)c2cc(C#N)oc12`: the melting point fell in the range of 170 to 178 °C.

Take `Cc1ccc(S(=O)(=O)N2[C@@H](Cc3nc(C)no3)CC[C@H]2c2ccc(F)cc2)cc1` (racemic): the melting point worked out at 103 °C.

In turn, `COCCNC(=O)c1cccc(-c2cccc3c2nc(Oc2cccc(C(F)(F)F)c2)n3C)c1` displayed a melting point of 146 to 147 °C.

Regarding `COc1cc2ncnc(NC3=CC(=O)C(Nc4ccccc4)=CC3=O)c2cc1OC`, the melting point is 258 to 261 °C.

For the compound `O=c1cnn(-c2cc(Cl)c(Cc3ccc(Cc4ccccc4)cc3)c(Cl)c2)c(=O)[nH]1`, the melting point was 164 to 165 °C.

The compound `CC(=NNC(=N)N)c1sc(-c2ccc3ccccc3c2)nc1C` came in with a melting point of 288 to 290 °C.

With `Cc1cc([N+](=O)[O-])ccc1NC(=O)C1=C(O)N(C)S(=O)(=O)c2sccc21`, the melting point lay within 189 to 191 °C.

`C(/CN1CCOCC1)=C1/CCCc2c1cnn2-c1ccccc1` came in with a melting point of 114 to 116 °C.

On to `N#Cc1cc(-c2nc3cncnc3s2)ccc1Sc1cccc(F)c1`, for which the melting point was in the range of 189 to 190 °C.

`CN(C)CCCNC(CC(=O)O)C(=O)OC1CCCCC1` (stereo not drawn): the melting point was in the range of 150 to 152 °C.

The compound `COc1ccc(CSc2cc(Cl)ccc2CN(C)C)cc1` displayed a melting point of 66 to 68 °C.

In turn, `C#CCn1c2c(c3ccccc31)CCCC2` yielded a melting point of 74 to 76 °C.

The compound `CC(=O)NCCNc1ccc(C2=NNC(=O)CC2C)cc1[N+](=O)[O-]` (stereo not drawn) registered a melting point of 222 °C.

In turn, `Cc1ccc(CNC(=S)NCCO)c(C)c1` registered a melting point of 101 to 103 °C.

In turn, `N#CC(C#N)=C1C=C(c2ccccc2)S(=O)(=O)C(c2cccs2)=C1` showed a melting point of 214 to 232 °C.

As to `N#CC(=Cc1ccccc1F)C(O)C#N` (stereo not drawn), the melting point was 122 °C.

`CNC(=O)Cn1nnnc1S`: the melting point was in the range of 167 to 168 °C.

Compound `CCCCCCc1cc(SC)ccc1O` gave a melting point of 42 to 44 °C.

Take `COc1ccccc1N1Sc2ccccc2C(c2ccccc2)C1=O` (stereo not drawn): the melting point worked out at 133 °C.

As for `Cc1ccc(-c2c(-c3ccc(S(N)(=O)=O)cc3)cnn(-c3ccc(F)c(F)c3)c2=O)cc1F`, the melting point lay in the range of 198 to 200 °C.

`Cc1c(C)c(Cl)c2[nH]c(Cl)nc2c1Cl` displayed a melting point of 280 to 285 °C.

The compound `C=C1CC(COc2cc(=O)oc3ccccc23)(c2ccccc2)OC1=O` (stereo not drawn) came in with a melting point of 212 to 214 °C.

`CC(C)(C)OC(=O)NCCNC(=O)c1ccc([N+](=O)[O-])cn1` displayed a melting point of 141 to 142 °C.

On to `O=c1c2cccnc2c(-c2cccc([N+](=O)[O-])c2)nn1Cc1ccccc1`, for which the melting point came to 132 °C.

Take `O=C1c2c(ccc3c2OCCO3)S(=O)(=O)N1CCCCBr`: the melting point was in the range of 135 to 136 °C.

As to `COc1cc(F)c(C2NCCc3ccsc32)cc1OC` (stereo not drawn), the melting point lay in the range of 108 to 111 °C.

`CC1(C)CCC(C)(C)c2cc(O)c(N)cc21` came in with a melting point of 225 °C.

Turning to `C#CCOc1cc(-n2c(Cl)c(C#N)n(CCC)c2=O)c(F)cc1Cl`, the melting point amounted to 122 °C.

On to `CCOc1ccc(NC=C(C#N)C(=O)Nc2cc(OC)c(Cl)cc2Cl)cc1I`, for which the melting point was over 245 °C.

`COc1nc(OC)nc(-n2cnc(SC)n2)n1`: the melting point came to 160 °C.

The compound `COC(=O)[C@@H]1[C@H](NC(=O)Cc2ccccc2)C(=O)N1Cc1ccc(OC)cc1OC` (relative stereo) returned a melting point of 124 to 126 °C.

With `CCN(CC)CC(=O)Nc1ccc(C2=NN=C(C)Cc3cc4c(cc32)OCO4)cc1`, the melting point lay within 157 to 158 °C.

Turning to `Nc1ccc2c(c1)CNC2`, the melting point lay within 113 to 119 °C.

With `Cc1ccccc1-c1ccc(C(=O)N2Cc3ccc(C(=O)NCc4ccc(Cl)cc4)n3Cc3ccccc32)cc1C`, the melting point lay within 196 to 197 °C.

As for `BrCCCCCCCCCCCCCCCCCCCCCCCCBr`, the melting point was 105 °C.

`COC(=O)c1ccc(S(C)(=O)=O)c(C=O)c1C` had a melting point of 108 to 110 °C.

On to `CCC1(O)CC(=O)OCc2c1cc1n(c2=O)Cc2cc3c4c(c(F)cc3nc2-1)OCN(Cc1ccccc1)C4` (stereo not drawn), for which the melting point is over 250 °C.

`Cc1nc[nH]c1CSCCNC(=O)NCCSCc1[nH]cnc1C` displayed a melting point of 225 to 228 °C.

In turn, `CC(C)C[C@H](NC(=O)[C@H](NC(=O)OCc1ccccc1)C(C)C)C(=O)O` registered a melting point of 134 to 136 °C.

As for `CCC1c2cccn2-c2ccccc2N1S(=O)(=O)c1ccc(O)c(C)c1` (stereo not drawn), the melting point fell in the range of 171 to 173 °C.

In the case of `CN(C)c1ccc(C(=CC=CC2N(C)c3ccccc3C2(C)C)c2ccc(N(C)C)cc2)cc1` (stereo not drawn), the melting point was in the range of 182 to 183 °C.

Take `CC1CS/C(=N/N=C\c2ccc(-c3ncn(-c4ccc(OC(F)(F)F)cc4)n3)cc2)N(c2ccccc2C(C)C)C1` (stereo not drawn): the melting point lay in the range of 186 to 190 °C.

Turning to `COc1ccc(CCNS(=O)(=O)c2ccc([N+](=O)[O-])cc2)cc1`, the melting point is 92 to 93 °C.

`O=S(=O)(CCCCl)Nc1cccc(COc2cccc3cccnc23)c1`: the melting point lay in the range of 142 to 143 °C.

`CON=CC(C)(C)NC(=O)c1c(I)cccc1C(=O)Nc1ccc(OC(C(F)(F)F)C(F)(F)F)nc1C`: the melting point is 220 °C.

For `O=c1ccc(-c2ccc(Cl)c(Cl)c2)nn1CN1CCN(Cn2nc(-c3ccc(Cl)c(Cl)c3)ccc2=O)CC1`, the melting point fell in the range of 234 to 236 °C.

For the compound `ClCCN(CCCl)CCOc1cccc(Nc2c3ccccc3nc3c(OCCN(CCCl)CCCl)cccc23)c1`, the melting point was in the range of 108 to 109 °C.

`CCCCCCCCCCCCCCOc1cccc(C(=O)N(CC(=O)O)CC(=O)O)c1` gave a melting point of 96 to 99 °C.

Turning to `COC(=O)C1CCC(=O)c2c(-c3ccc(Cl)cc3)noc2C1` (stereo not drawn), the melting point is 108 to 109 °C.

As for `CCC1C(C)=NN=C(c2ccc(OC)c(OC)c2)c2cc(C)ccc21` (stereo not drawn), the melting point lay in the range of 156 to 158 °C.

Turning to `CCOC(=O)C1(NS(=O)(=O)c2ccc3c(Cl)cnc(Cl)c3c2)CCCC1`, the melting point lay in the range of 127 to 129 °C.

`O=C(O)CCCc1cc2cc(Cl)ccc2n1S(=O)(=O)c1ccc(N2CCOCC2)nc1` returned a melting point of 78 to 82 °C.

The compound `N#Cc1ccsc1N=Cc1cccs1` had a melting point of 58 to 60 °C.

Consider `Cc1ccc(S(=O)(=O)NC(=O)Nc2ccccc2)cc1`, for which the melting point amounted to 166 °C.

As to `CN1c2ccc(Cl)cc2C(c2ccccc2F)=Nc2cccnc21`, the melting point is 136 to 138 °C.

In the case of `CCCOC(=O)N(C)SN(C(=O)NC(=O)c1c(F)cccc1F)c1ccc(Oc2ccc(C(F)(F)F)cc2Cl)cc1F`, the melting point was in the range of 98 to 99 °C.

Compound `O=C(Nc1cc2nc(-c3ccc(C(=O)C45CC6CC(CC(C6)C4)C5)cc3)[nH]c2cn1)C12CC3CC(CC(C3)C1)C2` had a melting point of 265 °C.

For `COC=C(C(=O)OC)c1cnc(C)nc1Oc1cccc(C(F)(F)F)c1`, the melting point is 100 to 102 °C.

`CCCCCC(CC(=O)Nc1cc(C(N)=O)ccc1C(C)(C)C)c1ccc(OCCC(N)S(C)(=O)=O)cc1OC` (stereo not drawn): the melting point lay in the range of 77 to 79 °C.

Take `Clc1ccc(N=c2ssnc2Cl)cc1Cl`: the melting point was 89 to 90 °C.

For `CCC(CC)Nc1ccc2c(c1)N1CCCN=C1S2`, the melting point came out at 114 °C.

Regarding `COc1ccccc1CN[C@H]1CCCN(CCCCCC(=O)O)[C@H]1c1ccccc1` (relative stereo), the melting point was 53 to 65 °C.

In turn, `CC1(O)OC(=O)C(c2c(F)cc(F)cc2F)=C1c1cccs1` (stereo not drawn) returned a melting point of 134 to 136 °C.
